Experimental data reported in PubChem BioAssay AID1996.
Converted amounts (≈) assume the structure as drawn.

Conditions: buffer; pH 7.4; 200.0 µM

SMILES	solubility kinetic
COc1ccc(NC(=S)NC23CN4CN(CN(C4)C2)C3)c(OC)c1	> 52.4 µg/mL
O=C(Nc1ccc(N2CCOCC2)cc1)c1ccc([N+](=O)[O-])o1	13.2 µg/mL (≈ 41.6 µM)
O=C(c1ccc(F)cc1F)N1CCN(c2ccccn2)CC1	> 45.5 µg/mL
CC(Oc1cccc(Cl)c1)C(=O)N1CCCN(C)CC1 (stereo not given)	> 44.5 µg/mL
CCCC12CN3CC(C)(CN(C1)C3c1ccco1)C2=O (stereo not given)	38.9 µg/mL (≈ 142 µM)
CCS(=O)(=O)N1CCC(N2CCN(c3ccccc3)CC2)CC1	49.6 µg/mL (≈ 147 µM)
COc1ccc(-c2nc(-c3cccs3)no2)cc1	< 0.3 µg/mL
CC1CCCC(C)N1S(=O)(=O)c1ccc(Cl)cc1 (stereo not given)	2.7 µg/mL (≈ 9.38 µM)
COc1cc(Cl)cc(/C=C/c2ccc3cccc(O)c3n2)c1OC	< 0.7 µg/mL
Cc1ccc(SCC(=O)NC(=O)NCCC(C)C)c(C)c1	1.4 µg/mL (≈ 4.54 µM)
O=C(NCC(=O)N1CCN(Cc2ccc3c(c2)OCO3)CC1)c1ccccc1F	1.4 µg/mL (≈ 3.51 µM)
O=S(=O)(c1ccc2[nH]ccc2c1)N1CCCCCC1	> 41.8 µg/mL
Cc1cc2oc(=O)cc(CN3CCOCC3)c2cc1O	> 41.3 µg/mL
CC1CC1C(=O)Nc1cc(C(F)(F)F)ccc1N1CCOCC1 (stereo not given)	40.9 µg/mL (≈ 125 µM)
Cc1ccc(N2CC(=O)Nc3c(sc4nc(C)cc(C)c34)C2=O)cc1	0.6 µg/mL (≈ 1.71 µM)
Cc1nnc(NC(=O)CSc2nnc(C)c(=O)n2N)s1	> 47 µg/mL
Cc1ccc(C(=O)N[C@H](C(=O)NC2CCCCC2)C(C)C)cc1	8 µg/mL (≈ 25.3 µM)
CCCCCCOc1ccc(C(=O)NCCCn2ccnc2)cc1	> 49.4 µg/mL
COc1cc2c(cc1OC)C(c1cccc(F)c1)CC(=O)N2 (stereo not given)	> 45.2 µg/mL
CCOc1ncccc1C(=O)OC(C)C(=O)Nc1ccc(N2CCOCC2)cc1 (stereo not given)	27.5 µg/mL (≈ 68.8 µM)
CC(C)[C@H](NC(=O)NCc1ccc(F)cc1)C(=O)O	> 40.2 µg/mL

SMILES	solubility kinetic
CCN(CC)CCNS(=O)(=O)c1ccc(/C=C/C(=O)O)cc1	41 µg/mL (≈ 126 µM)
CC(=O)C1=C(O)C(=O)N(c2ccc(O)cc2)C1c1ccc(Cl)cc1 (stereo not given)	42.6 µg/mL (≈ 124 µM)
OCc1ccc(OCCCOc2cccc3cccnc23)cc1	30.5 µg/mL (≈ 98.6 µM)
O=C(NCCCN1CCOCC1)C1CC(=O)N(c2ccccc2)C1 (stereo not given)	> 49.7 µg/mL
O=S(=O)(c1ccc(=S)[nH]c1)N1CCCCCC1	32 µg/mL (≈ 117 µM)
CC(=O)c1cn(-c2ccc([N+](=O)[O-])cc2)c(=O)n(C)c1=O	> 43.4 µg/mL
O=S(=O)(c1cccc2nsnc12)N1CCCCC1	> 42.5 µg/mL
CCn1nc(C)c(/C=N/NC(=O)Cn2cncn2)c1C	> 41.3 µg/mL
CCNC(=O)C(=O)Nc1ccc(OC)c(Cl)c1	2.4 µg/mL (≈ 9.35 µM)
O=C(Nc1ccc(N2CCOCC2)nc1)c1cccs1	> 43.4 µg/mL
NC(=O)NC(=O)COC(=O)CC12CC3CC(CC(C3)C1)C2	29.2 µg/mL (≈ 99.2 µM)
Cc1cc(=O)oc2cc(OCC(=O)N3CC[C@@]4(O)CCCC[C@H]4C3)ccc12	> 55.7 µg/mL
O=C(Nc1ccc(CN2CCCCC2)cc1)c1cccc(F)c1	44.7 µg/mL (≈ 143 µM)
O=C(Nc1cccnc1)OC1CCCC1	29.5 µg/mL (≈ 143 µM)
O=C(COC(=O)c1cc(Cl)ccc1Cl)NC1CCCC1	23.8 µg/mL (≈ 75.3 µM)
O=C(c1cnc2sccn2c1=O)N1CCN(c2ccccc2Cl)CC1	54.4 µg/mL (≈ 145 µM)
Cn1c(=O)c2c(nc(NNC(=O)C(F)(F)F)n2C)n(C)c1=O	> 48 µg/mL
CC(=O)Nc1ccc(C(=O)CN2C(=O)NC3(CCCCCC3)C2=O)c(F)c1	33.9 µg/mL (≈ 90.3 µM)
CCOP(=O)(OCC)C(Cc1ccccc1)NC(C)=O (stereo not given)	43.5 µg/mL (≈ 145 µM)
Cc1ccc(OCC(=O)Nc2ccncc2)cc1	35.1 µg/mL (≈ 145 µM)
CN1CCN(c2ccc(C(=O)NC3CCCCC3)cc2[N+](=O)[O-])CC1	49.7 µg/mL (≈ 143 µM)

SMILES	solubility kinetic
CS(=O)(=O)N1CCN(Cc2cc(=O)n3ccsc3n2)CC1	> 49.3 µg/mL
Fc1ccc(COc2ccc(C(=S)N3CCCC3)cc2)cc1	< 0.7 µg/mL
CS(=O)(=O)c1ccc(Cl)c(NC(=O)CN2CCN(C(=O)c3cccs3)CC2)c1	> 66.3 µg/mL
CN1CC(C(=O)c2ccc(Cl)cc2)C(c2ccccc2F)C1 (stereo not given)	> 47.7 µg/mL
O=[N+]([O-])/C=C\c1ccc(N2CCOCC2)cc1	16.5 µg/mL (≈ 70.4 µM)
COc1cccc(CC(=O)OCC(=O)NCc2ccc3c(c2)OCO3)c1	> 53.6 µg/mL
CC1CCN(C2=NC(=O)/C(=C/c3ccc(O)cc3)S2)CC1	3.8 µg/mL (≈ 12.6 µM)
COc1ccc(OC)c(S(=O)(=O)N2CCCC(C(=O)NCc3ccccn3)C2)c1 (stereo not given)	> 62.9 µg/mL
CCCCc1c(C)nc(N2CCCC2)[nH]c1=O	> 35.3 µg/mL
CC(OC(=O)c1ccc(Br)o1)C(=O)NCC1CCCCC1 (stereo not given)	10.7 µg/mL (≈ 29.9 µM)
O=CN1CCN(C(=O)c2ccc(Br)o2)CC1	> 43.1 µg/mL
Cl.O=C(O)C1CCN(Cc2ccccn2)CC1	34.4 µg/mL
COC(=O)c1cccc(NC(=S)NC(C)C)c1	> 37.8 µg/mL
COC(=O)c1ccc(NCC(=O)Nc2cc(C)cc(C)c2)cc1	5.4 µg/mL (≈ 17.3 µM)
CCCN(C(=O)CCl)C1=CCCCC1	31 µg/mL (≈ 144 µM)
CC(=O)c1ccc(-c2ccc(C(=O)NCC3CCCO3)o2)cc1 (stereo not given)	> 47 µg/mL
Cc1ccc(OCC(=O)NCCNC(=O)c2ccncc2)cc1	45.1 µg/mL (≈ 144 µM)
Cc1nonc1OC(C)CNCCNc1ccc([N+](=O)[O-])cc1.Cl (stereo not given)	> 53.7 µg/mL
O=C(O)c1cccc([N+](=O)[O-])c1C(=O)Nc1nc2ccccc2s1	> 51.5 µg/mL

The next lines start with the values.

solubility kinetic	SMILES
17.6 µg/mL (≈ 57.4 µM)	Cc1ccc(CNC(=O)CCCc2c[nH]c3ccccc23)cc1
18.4 µg/mL (≈ 92.3 µM)	Cc1nc2c(C)cccc2c2c1COC2
48 µg/mL (≈ 147 µM)	COC(=O)c1ccccc1NS(=O)(=O)c1ccc(Cl)nc1
16.6 µg/mL (≈ 61.4 µM)	O=C(Nc1ccccc1)O/N=C1/CCCc2occc21
> 33 µg/mL	CCc1ccc(C(=O)Nc2cc(C)on2)o1
7.8 µg/mL	Cc1ccccc1C(=O)Nc1ccc(N2CCCC2)cc1.Cl
< 0.3 µg/mL	CC1CCCC(NC(=O)CCCn2c(=S)[nH]c3ccccc3c2=O)C1C (stereo not given)
0.7 µg/mL (≈ 2.34 µM)	Cc1ccc(Sc2nc(C)c([N+](=O)[O-])c(C)c2C#N)cc1
> 49.1 µg/mL	O=C(CSc1ncc(-c2ccccc2)[nH]1)Nc1ccccc1F
39.9 µg/mL (≈ 130 µM)	CC1(C)CC(=O)C(C(O)c2ccc([N+](=O)[O-])cc2)C(C)(C)N1 (stereo not given)
> 52.7 µg/mL	O=C(COC(=O)CCc1nc2ccccc2c(=O)[nH]1)Nc1ccccc1
> 43.1 µg/mL	OC(CNCc1ccccc1C(F)(F)F)C(F)(F)F (stereo not given)
< 0.4 µg/mL	COc1cccc(NC(=O)c2cc(-c3ccco3)nc3ccccc23)c1
8.8 µg/mL (≈ 27.5 µM)	COc1ccc(NC(=O)c2cccc(Oc3ccccc3)c2)cn1
44.3 µg/mL (≈ 147 µM)	OC(CNC1Cc2ccccc2C1)COc1ccc(F)cc1 (stereo not given)
51.2 µg/mL (≈ 144 µM)	Cc1ccc(Cn2c(N3CCNCC3)nc3c2c(=O)[nH]c(=O)n3C)cc1
39.7 µg/mL (≈ 148 µM)	C=CCn1cccc(C(=O)Nc2ccc(C)cc2)c1=O
> 39.7 µg/mL	CSC1=C(C#N)C(c2sccc2C)CC(=O)N1 (stereo not given)
> 34.8 µg/mL	O=C(N/N=C/c1ccoc1)c1ccccc1F
< 0.3 µg/mL	Cc1cc2c(=O)n(C)c(SCC(=O)Nc3cccc(F)c3)nc2s1

solubility kinetic	SMILES
> 38.1 µg/mL	Cc1[nH]c(C(=O)O)c(C#N)c1C(=O)c1ccccc1
1.1 µg/mL (≈ 3.29 µM)	O=C(NCc1ccccc1)c1nc[nH]c1C(=O)NCc1ccccc1
32.5 µg/mL (≈ 133 µM)	CC(C)C(=O)NCc1cc(-c2ccccc2)no1
> 37 µg/mL	Cc1c(Cl)cccc1NC(=O)c1cccnc1
> 43.1 µg/mL	COc1ccc2[nH]c(C(=O)N3CCN(C)CC3)c(C)c2c1
21.3 µg/mL (≈ 125 µM)	Cc1[nH]c2ccccc2c1CC#N
50.3 µg/mL (≈ 146 µM)	O=C(Cc1ccc(O)cc1)NCCNC(=S)NCc1ccccc1
> 43.2 µg/mL	O=C(NCCCCc1ccccc1)c1ccccc1Cl
40.8 µg/mL (≈ 149 µM)	Cc1nc2oc3ccc(F)cc3c(=O)c2cc1C(=O)O
36.7 µg/mL (≈ 143 µM)	Cc1cc(C)cc(OCC(=O)Nc2ccncc2)c1
3.9 µg/mL (≈ 13.9 µM)	Cc1ccc(C(=O)Nc2ccc3[nH]c(=O)[nH]c3c2)c(C)c1
> 38 µg/mL	O=C(NC1CC1)c1cccc(Oc2ccccc2)c1
> 37.8 µg/mL	CCn1ccnc1C(O)c1cccc2ccccc12 (stereo not given)
< 0.7 µg/mL	COc1ccccc1N1C(=O)c2cccc3c(Cl)ccc(c23)C1=O
> 42.3 µg/mL	O=C(O)CCC(NC(=S)Nc1ccccc1)C(=O)O (stereo not given)
1.1 µg/mL (≈ 3.95 µM)	O=C(NCc1ccc(F)cc1)Nc1ccc(Cl)cc1
> 70.9 µg/mL	CN(CC(=O)NCCc1ccc(S(N)(=O)=O)cc1)CC(=O)Nc1ccccc1C(F)(F)F
50.3 µg/mL (≈ 139 µM)	COC(=O)c1cc(S(=O)(=O)Nc2cccc(-c3cnco3)c2)oc1C
50.8 µg/mL	Cc1ccc(SCCc2cc[n+](CC(=O)c3ccccc3)cc2)cc1
> 49.4 µg/mL	CCCCC1(C)NC(=O)N(CC(=O)N2CCc3ccccc32)C1=O (stereo not given)

solubility kinetic	SMILES
< 0.4 µg/mL	COc1ccc(CNC(=O)c2c(O)c3ccccc3n(C)c2=O)cc1
4.6 µg/mL (≈ 12.7 µM)	CCOC(=O)C1=C(COC(=O)/C=C/c2cccc(F)c2)NC(=O)NC1C (stereo not given)
39.8 µg/mL (≈ 137 µM)	O=S(=O)(Nc1ccccc1)c1cccc2nsnc12
> 44.5 µg/mL	Cc1cccc(OCCCn2c(CO)nc3ccccc32)c1
> 43.1 µg/mL	Cn1c(C(=O)NCCc2ccccc2)cc(=O)n(C)c1=O
5.1 µg/mL (≈ 14.6 µM)	CC(=O)N(CCc1cccc(C)c1)Cc1cc2ccc(C)cc2[nH]c1=O
3.6 µg/mL (≈ 14.6 µM)	Fc1cccc(-c2csc(-c3ccno3)n2)c1
> 52.9 µg/mL	COc1ccc(C2C(CN3CCOCC3)C(=O)N2c2ccccc2)cc1 (stereo not given)
35.8 µg/mL (≈ 130 µM)	CCOC(=O)C(=O)N1CCC(Cc2ccccc2)CC1
> 45.6 µg/mL	Cc1cccc(NC(=O)CNC(=O)c2ccccc2Cl)n1
> 47.6 µg/mL	Cc1ccc(S(=O)(=O)n2cnc3ccccc32)cc1[N+](=O)[O-]
1.8 µg/mL (≈ 7.28 µM)	N#CC(C(=O)c1ccccc1)=C1SCCS1
> 43.1 µg/mL	COc1cc(C(=O)c2ccccc2)c([N+](=O)[O-])cc1OC
45 µg/mL (≈ 149 µM)	CCn1cc(CN2CCN(C)C(CCO)C2)c2ccccc21 (stereo not given)
> 32.6 µg/mL	CC(Cc1c[nH]c2ccccc12)NC(N)=O (stereo not given)
> 39 µg/mL	CNC(=O)Cn1c(C)cc(=O)c2cccc(OC)c21
44.9 µg/mL	CNCc1c(OCc2ccccc2)ccc2ccccc12.Cl
39.7 µg/mL (≈ 128 µM)	Cc1[nH]c2ccccc2c1C(=O)COC(=O)c1ccc[n+]([O-])c1
48.8 µg/mL (≈ 143 µM)	COCCOC(=O)C1=C(C)NC(=O)NC1c1cccc2ccccc12 (stereo not given)
